Legend:
Test in all cases: cells
NCI-H1155 = assay type: functional, cell-based; conditions: Homo sapiens;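 further: cell growth inhibition measured by a viability assay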
Description: SANGER: Inhibition of human NCI-H1155 cell growth in a cell viability assay.

EW-1 = assay type: functional, cell-based, Homo sapiens; conditions: Homo sapiens, EW-1
Description: SANGER: Inhibition of human EW-1 cell growth in a cell viability assay.

COLO-320-HSR = assay type: functional, cell-based; conditions: Homo sapiens;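 further: growth inhibition of COLO-320-HSR cells, determined with a cell viability assay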
Description: SANGER: Inhibition of human COLO-320-HSR cell growth in a cell viability assay.

NB14 = assay type: functional, cell-based; conditions: Homo sapiens;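 further: growth inhibition of NB14 cells measured with a cell viability assay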
Description: SANGER: Inhibition of human NB14 cell growth in a cell viability assay.

D-542MG = assay type: functional, cell-based, Homo sapiens; conditions: Homo sapiens, D-542MG
Description: SANGER: Inhibition of human D-542MG cell growth in a cell viability assay.

EW-13 = assay type: functional, cell-based; conditions: Homo sapiens;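 further: growth inhibition of EW-13 cells, read out with a cell viability assay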
Description: SANGER: Inhibition of human EW-13 cell growth in a cell viability assay.

TE-6 = assay type: functional, cell-based, Homo sapiens; conditions: Homo sapiens, TE-6;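 further: growth inhibition of TE-6 cells, read out with a cell viability assay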
Description: SANGER: Inhibition of human TE-6 cell growth in a cell viability assay.

ES8 = assay type: functional, cell-based, Homo sapiens; conditions: Homo sapiens, ES8;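 further: growth inhibition of human ES8 cells, read out with a cell viability assay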
Description: SANGER: Inhibition of human ES8 cell growth in a cell viability assay.

NCI-H1355 = assay type: functional, cell-based, Homo sapiens; conditions: Homo sapiens, NCI-H1355;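 further: growth inhibition of human NCI-H1355 cells, read out by a cell viability assay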
Description: SANGER: Inhibition of human NCI-H1355 cell growth in a cell viability assay.

HOP-62 = assay type: functional, cell-based, Homo sapiens; conditions: Homo sapiens, HOP-62;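 further: cell growth inhibition determined with a viability assay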
Description: SANGER: Inhibition of human HOP-62 cell growth in a cell viability assay.

D-263MG = assay type: functional, cell-based, Homo sapiens; conditions: Homo sapiens, D-263MG
Description: SANGER: Inhibition of human D-263MG cell growth in a cell viability assay.

HD-MY-Z = assay type: functional, cell-based, Homo sapiens; conditions: Homo sapiens, HD-MY-Z;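 further: growth inhibition of HD-MY-Z cells, read out with a cell viability assay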
Description: SANGER: Inhibition of human HD-MY-Z cell growth in a cell viability assay.

C2BBe1 = assay type: functional, cell-based, Homo sapiens; conditions: Homo sapiens, C2BBe1;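 further: growth inhibition of C2BBe1 cells, read out through a viability assay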
Description: SANGER: Inhibition of human C2BBe1 cell growth in a cell viability assay.

NTERA-2-cl-D1 = assay type: functional, cell-based, Homo sapiens; conditions: Homo sapiens, NTERA-2-cl-D1;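 further: inhibition of cell growth, measured with a cell viability assay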
Description: SANGER: Inhibition of human NTERA-S-cl-D1 cell growth in a cell viability assay.

BT-474 = assay type: functional, cell-based, Homo sapiens; conditions: Homo sapiens, BT-474
Description: SANGER: Inhibition of human BT-474 cell growth in a cell viability assay.

KU812 cell line = assay type: functional, cell-based; conditions: Homo sapiens;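 further: growth inhibition of KU812 cells, read out with a cell viability assay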
Description: SANGER: Inhibition of human KU812 cell growth in a cell viability assay.

MOLT-4 = assay type: functional, cell-based; conditions: Homo sapiens;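 further: growth inhibition of MOLT-4 cells, determined with a cell viability readout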
Description: SANGER: Inhibition of human MOLT-4 cell growth in a cell viability assay.

COLO-668 = assay type: functional, cell-based, Homo sapiens; conditions: Homo sapiens, COLO-668
Description: SANGER: Inhibition of human COLO-668 cell growth in a cell viability assay.

ES7 = assay type: functional, cell-based, Homo sapiens; conditions: Homo sapiens, ES7;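 further: growth inhibition of cultured human ES7 cells, read out as cell viability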
Description: SANGER: Inhibition of human ES7 cell growth in a cell viability assay.

COLO-824 = assay type: functional, cell-based, Homo sapiens; conditions: Homo sapiens, COLO-824
Description: SANGER: Inhibition of human COLO-824 cell growth in a cell viability assay.

SW982 = assay type: functional, cell-based; conditions: Homo sapiens;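 further: growth inhibition of SW982 cells, read out with a cell viability assay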
Description: SANGER: Inhibition of human SW982 cell growth in a cell viability assay.

SNU-C2B = assay type: functional, cell-based, Homo sapiens; conditions: Homo sapiens, SNU-C2B;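 further: cell viability readout used to measure compound-driven suppression of SNU-C2B cell proliferation, IC50 marking half-maximal growth inhibition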
Description: SANGER: Inhibition of human SNU-C2B cell growth in a cell viability assay.

Row | Compound | IC50 (NCI-H1155) [µM] | IC50 (EW-1) [µM] | IC50 (COLO-320-HSR) [µM] | IC50 (NB14) [µM] | IC50 (D-542MG) [µM] | IC50 (EW-13) [µM] | IC50 (TE-6) [µM] | IC50 (ES8) [µM] | IC50 (NCI-H1355) [µM] | IC50 (HOP-62) [µM] | IC50 (D-263MG) [µM] | IC50 (HD-MY-Z) [µM] | IC50 (C2BBe1) [µM] | IC50 (NTERA-2-cl-D1) [µM] | IC50 (BT-474) [µM] | IC50 (KU812 cell line) [µM] | IC50 (MOLT-4) [µM] | IC50 (COLO-668) [µM] | IC50 (ES7) [µM] | IC50 (COLO-824) [µM] | other results
1 | C=C1C(=O)O[C@@H]2C3O[C@]3(C)CC/C=C(\C)CC[C@@H]12 (some centres undefined) | > 5 | > 5 | > 5 | > 5 | > 5 | > 5 | > 5 | > 5 | > 5 | > 5 | > 5 | > 5 | > 5 | > 5 | > 5 | > 5 | > 5 | > 5 | > 5 | > 5 | –
2 | CC1=C2C[C@H]3[C@@H](CC=C4C[C@@H](O)CC[C@@]43C)[C@@H]2CC[C@]12O[C@@H]1C[C@H](C)CN[C@H]1[C@H]2C [CYCLOPAMINE] | > 16 | > 16 | > 16 | > 16 | > 16 | > 16 | > 16 | > 16 | > 16 | > 16 | > 16 | > 16 | > 16 | > 16 | > 16 | > 16 | > 16 | > 16 | > 16 | > 16 | –
3 | CS(=O)(=O)CCNCc1ccc(-c2ccc3ncnc(Nc4ccc(OCc5cccc(F)c5)c(Cl)c4)c3c2)o1 [LAPATINIB] | > 2 | > 2 | > 2 | > 2 | > 2 | > 2 | 1.55 | > 2 | > 2 | > 2 | > 2 | > 2 | > 2 | > 2 | 0.213 | > 2 | > 2 | > 2 | > 2 | > 2 | –
4 | CCc1nc(N)nc(N)c1-c1ccc(Cl)cc1 [PYRIMETHAMINE] | > 20 | 1.37 | 4 | > 20 | > 20 | > 20 | > 20 | 0.897 | > 20 | 5.02 | > 20 | 11.9 | > 20 | > 20 | > 20 | 15.6 | 5.43 | > 20 | 14.8 | > 20 | –
5 | O=C(/C=C/c1ccccc1)NC(NC(=S)Nc1cccc2cccnc12)C(Cl)(Cl)Cl (centres undefined) [SALUBRINAL] | > 16 | 9.71 | > 16 | > 16 | 13.4 | > 16 | > 16 | 8.64 | > 16 | > 16 | > 16 | > 16 | > 16 | 12.9 | > 16 | > 16 | > 16 | > 16 | > 16 | > 16 | –
6 | CN1CCN(CCOc2cc(OC3CCOCC3)c3c(Nc4c(Cl)ccc5c4OCO5)ncnc3c2)CC1 [SARACATINIB] | > 2 | > 2 | > 2 | > 2 | – | > 2 | > 2 | > 2 | > 2 | 1.5 | > 2 | > 2 | 1.21 | > 2 | > 2 | > 2 | > 2 | > 2 | > 2 | > 2 | IC50 (SW982): 1.92 µM; IC50 (SNU-C2B): > 2 µM
7 | CO[C@H]1C[C@@H]2CC[C@@H](C)[C@@](O)(O2)C(=O)C(=O)N2CCCC[C@H]2C(=O)O[C@H]([C@H](C)C[C@@H]2CC[C@@H](O)[C@H](OC)C2)CC(=O)[C@H](C)/C=C(\C)[C@@H](O)[C@@H](OC)C(=O)[C@H](C)C[C@H](C)/C=C/C=C/C=C/1C [SIROLIMUS] | > 0.1 | 0.00217 | > 0.1 | > 0.1 | – | > 0.1 | 0.00277 | > 0.1 | 0.00101 | > 0.1 | > 0.1 | > 0.1 | > 0.1 | 0.000443 | > 0.1 | 0.00201 | 0.0968 | > 0.1 | > 0.1 | > 0.1 | IC50 (SW982): > 0.1 µM; IC50 (SNU-C2B): > 0.1 µM
8 | CNC(=O)c1cc(Oc2ccc(NC(=O)Nc3ccc(Cl)c(C(F)(F)F)c3)cc2)ccn1 [SORAFENIB] | > 4 | > 4 | > 4 | > 4 | > 4 | > 4 | > 4 | > 4 | > 4 | 0.851 | > 4 | > 4 | > 4 | > 4 | > 4 | > 4 | > 4 | > 4 | > 4 | > 4 | –
9 | CCC(=O)N1CCN(c2ccc(-n3c(=O)ccc4cnc5ccc(-c6cnc7ccccc7c6)cc5c43)cc2C(F)(F)F)CC1 [TORIN1] | 0.654 | 0.00749 | 0.131 | > 1.2 | – | > 1.2 | 0.681 | 0.0184 | 0.0165 | 0.0356 | 0.661 | 0.0243 | 0.137 | 0.0323 | 0.293 | 0.013 | 0.0661 | 0.294 | > 1.2 | 0.878 | IC50 (SW982): 0.0425 µM; IC50 (SNU-C2B): 0.243 µM
10 | Cc1cc(Nc2cc(N3CCN(C)CC3)nc(Sc3ccc(NC(=O)C4CC4)cc3)n2)n[nH]1 [TOZASERTIB] | > 2 | 1.19 | > 2 | > 2 | – | > 2 | > 2 | 0.0461 | > 2 | 0.863 | > 2 | > 2 | > 2 | 0.0143 | > 2 | > 2 | 0.233 | > 2 | > 2 | > 2 | IC50 (SW982): 0.214 µM; IC50 (SNU-C2B): > 2 µM
